Measurements published in patent US8202856B2 (Merck Serono SA, priority 2007, dated 2012).
Counter-ions that a name gives are not always drawn.

Biological target: S1P1 receptor (Homo sapiens, UniProt P21453)
Assay: 35S-GTPγS binding, membranes from CHO cells expressing S1P1
Assay type: biochemical
Conditions: CHO cell membranes expressing S1P1
Description: Receptor binding assay: Membranes were prepared from CHO cells expressing S1P1 or S1P3 for use in ligand and 35S-GTPTS binding studies. Cells were suspended in 50 mM TRIS, pH 7.4, 2 mM EDTA, 250 mM Sucrose (buffer A) and 1× Complete protease inhibitor cocktail (Roche), and disrupted at 4° C. by nitrogen decompression using a cell disruption bomb (Parr Instrument). Following centrifugation at 1000 RPM for 10 min at 4° C., the supernatant was suspended in buffer A and centrifuged again at 19000 RPM for 60 min at 4° C. The pellet was then suspended in 10 mM HEPES, pH 7.4, 1 mM EDTA, 250 mM Sucrose (Buffer B), and 1× Complete EDTA-free protease inhibitor cocktail and homogenized using a potter. Membranes were flash frozen in liquid nitrogen and stored at −80° C. [33P]sphingosine 1-phosphate (3000 Ci/mmol; American Radiolabeled Chemicals, Inc.) was added to test compounds in DMSO. Membranes and WGA SPA beads (GE Healthcare) were added to give a final volume of 100 μl in 96-well plates with assay concentrations of […] [33P]sphingosine 1-phosphate (respectively for S1P1 or S1P3), 50 mM HEPES, pH 7.5, 5 mM MgCl2, 100 mM NaCl, 0.4% fatty acid-free BSA, 1-5 μg/well of proteins and 100 μg/well of WGA SPA beads. Binding was performed for 60 min at room temperature on a shaker and bound radioactivity was measured on a PerkinElmer 1450 MicroBeta counter. Specific binding was calculated by subtracting remaining radioactivity in the presence of 1000-fold excess of unlabeled S1P. Binding data were analyzed using the GraphPad Prism program.
Measurements of ^35S-GTPγS Binding: Membranes (1 to 10 μg protein) prepared as described above, were incubated in 96-well Scintiplates (PerkinElmer) with test compounds diluted in DMSO, in 180 μl of 20 mM HEPES, pH 7.4, 10 mM MgCl2, 2 μg/well Saponin, 0.2% fatty acid free BSA (Assay buffer), 140 mM NaCl and 1.7 μM GDP. The assay was initiated with the addition of 20 μl of 1.5 nM [35S]-GTPγS (1100 Ci/mmol; GE Healthcare) in assay buffer. After 60 min incubation at 30° C. on a shaker, plates were centrifuged for 10 min at 2000 RPM. Supernatant was discarded and membrane bound radioactivity was measured on a PerkinElmer 1450 MicroBeta counter. Triplicate samples were averaged and expressed as response relative to S1P activation in absence of compound (n=2).

S1P1 receptor, sequence (P21453 whole entry): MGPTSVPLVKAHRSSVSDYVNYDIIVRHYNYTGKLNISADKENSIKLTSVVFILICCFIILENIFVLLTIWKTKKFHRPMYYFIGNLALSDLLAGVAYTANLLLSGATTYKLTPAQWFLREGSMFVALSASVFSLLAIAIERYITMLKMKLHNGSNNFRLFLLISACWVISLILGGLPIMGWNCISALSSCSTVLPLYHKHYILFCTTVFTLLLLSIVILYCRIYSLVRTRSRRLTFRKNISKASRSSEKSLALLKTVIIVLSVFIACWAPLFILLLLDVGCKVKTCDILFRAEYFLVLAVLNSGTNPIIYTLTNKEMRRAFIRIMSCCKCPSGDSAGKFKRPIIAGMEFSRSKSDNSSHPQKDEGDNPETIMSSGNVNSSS

Row | Compound | EC50 [nM]
1 | CN(C)Cc1ccc(-c2noc(-c3nnn(-c4ccccc4F)c3-c3ccncc3)n2)cc1 [Example 131, 1-(4-{5-[1-(2-fluorophenyl)-5-pyridin-4-yl-1H-1,2,3-triazol-4-yl]-1,2,4-oxadiazol-3-yl}phenyl)-N,N-dimethylmethanamine] | 11
2 | NCc1cccc(-c2noc(-c3nnn(-c4ccccc4F)c3-c3ccncc3)n2)c1 [Example 125, 1-(3-{5-[1-(2-fluorophenyl)-5-pyridin-4-yl-1H-1,2,3-triazol-4-yl]-1,2,4-oxadiazol-3-yl}phenyl)methanamine hydrochloride] | 230
3 | Oc1cccc(-c2noc(-c3nnn(-c4ccccc4F)c3-c3ccncc3)n2)c1 [Example 124, 3-{5-[1-(2-fluorophenyl)-5-pyridin-4-yl-1H-1,2,3-triazol-4-yl]-1,2,4-oxadiazol-3-yl}phenol] | 23
4 | CN(CC(=O)O)Cc1ccc(-c2noc(-c3nnn(-c4ccccc4F)c3-c3ccncc3)n2)cc1 [Example 130, N-(4-{5-[1-(2-fluorophenyl)-5-pyridin-4-yl-1H-1,2,3-triazol-4-yl]-1,2,4-oxadiazol-3-yl}benzyl)-N-methylglycine] | 45
5 | OC1CCN(Cc2ccc(-c3noc(-c4nnn(-c5ccccc5F)c4-c4ccncc4)n3)cc2)CC1 [Example 141, 1-(4-{5-[1-(2-fluorophenyl)-5-pyridin-4-yl-1H-1,2,3-triazol-4-yl]-1,2,4-oxadiazol-3-yl}benzyl)piperidin-4-ol] | 74
6 | Fc1ccccc1-n1nnc(-c2nc(-c3ccc4[nH]ccc4c3)no2)c1-c1ccncc1 [Example 43, 5-{5-[1-(2-fluorophenyl)-5-pyridin-4-yl-1H-1,2,3-triazol-4-yl]-1,2,4-oxadiazol-3-yl}-1H-indole] | 19
7 | Nc1cc(-c2noc(-c3nnn(-c4ccccc4F)c3-c3ccncc3)n2)ccn1 [Example 152, 4-{5-[1-(2-fluorophenyl)-5-pyridin-4-yl-1H-1,2,3-triazol-4-yl]-1,2,4-oxadiazol-3-yl}pyridin-2-amine] | 78
8 | COc1cccc(-c2noc(-c3nnn(-c4ccccc4F)c3-c3ccccn3)n2)c1 [Example 70, 2-{1-(2-fluorophenyl)-4-[3-(3-methoxyphenyl)-1,2,4-oxadiazol-5-yl]-1H-1,2,3-triazol-5-yl}pyridine] | 284
9 | COc1ccccc1-c1noc(-c2nnn(-c3ccccc3F)c2-c2ccccn2)n1 [Example 67, 2-{1-(2-fluorophenyl)-4-[3-(2-methoxyphenyl)-1,2,4-oxadiazol-5-yl]-1H-1,2,3-triazol-5-yl}pyridine] | 873
10 | Fc1ccccc1-n1nnc(-c2nc(-c3ccco3)no2)c1-c1ccncc1 [Example 89, 4-{1-(2-fluorophenyl)-4-[3-(2-furyl)-1,2,4-oxadiazol-5-yl]-1H-1,2,3-triazol-5-yl}pyridine] | 1030
11 | CC(C)c1c(-c2nc(-c3cc(F)ccc3F)no2)nnn1-c1ccccc1F [Example 63, 3-(2,5-difluorophenyl)-5-[1-(2-fluorophenyl)-5-isopropyl-1H-1,2,3-triazol-4-yl]-1,2,4-oxadiazole] | 310
12 | O=C(O)[C@H]1CC[C@@H](NCc2ccc(-c3noc(-c4nnn(-c5ccccc5F)c4-c4ccncc4)n3)cc2)CC1 [Example 163] | 80
13 | COCc1c(-c2nc(-c3ccc(Cn4ccnc4)cc3)no2)nnn1-c1ccccc1F [Example 175, 5-[1-(2-fluorophenyl)-5-(methoxymethyl)-1H-1,2,3-triazol-4-yl]-3-[4-(1H-imidazol-1-ylmethyl)phenyl]-1,2,4-oxadiazole] | 67
14 | Fc1ccccc1-n1nnc(-c2nc(-c3ccc(CN4CC[C@H](F)C4)cc3)no2)c1-c1ccncc1 [Example 167, 4-{1-(2-fluorophenyl)-4-[3-(4-{[(3S)-3-fluoropyrrolidin-1-yl]methyl}phenyl)-1,2,4-oxadiazol-5-yl]-1H-1,2,3-triazol-5-yl}pyridine] | 15
15 | Fc1ccc(-c2noc(-c3nnn(-c4ccccc4F)c3-c3ccncc3)n2)cc1 [Example 96, 4-{1-(2-fluorophenyl)-4-[3-(4-fluorophenyl)-1,2,4-oxadiazol-5-yl]-1H-1,2,3-triazol-5-yl}pyridine] | 138
16 | O=C(O)[C@H]1CCC[C@H]1NCc1ccc(-c2noc(-c3nnn(-c4ccccc4F)c3-c3ccncc3)n2)cc1 [Example 177, (1S,2R)-2-[(4-{5-[1-(2-fluorophenyl)-5-pyridin-4-yl-1H-1,2,3-triazol-4-yl]-1,2,4-oxadiazol-3-yl}benzyl)amino]cyclopentanecarboxylic acid] | 742
17 | Fc1ccccc1-n1nnc(-c2nc(-c3cccc(CN4CCOCC4)c3)no2)c1-c1ccncc1 [Example 60, 4-(3-{5-[1-(2-fluorophenyl)-5-pyridin-4-yl-1H-1,2,3-triazol-4-yl]-1,2,4-oxadiazol-3-yl}benzyl)morpholine] | 620
18 | COCc1c(-c2nc(-c3cccc(S(N)(=O)=O)c3)no2)nnn1-c1ccccc1F [Example 93, 3-{5-[1-(2-fluorophenyl)-5-(methoxymethyl)-1H-1,2,3-triazol-4-yl]-1,2,4-oxadiazol-3-yl}benzenesulfonamide] | 754
19 | Fc1ccccc1-c1noc(-c2nnn(-c3ccccc3F)c2Cc2ccccc2)n1 [Example 58, 5-[5-benzyl-1-(2-fluorophenyl)-1H-1,2,3-triazol-4-yl]-3-(2-fluorophenyl)-1,2,4-oxadiazole] | 1160
20 | Cc1cc(CCC(=O)O)ccc1-c1noc(-c2nnn(-c3ccccc3F)c2-c2ccccc2)n1 [Example 30, 3-(4-{5-[1-(2-Fluorophenyl)-5-phenyl-1H-1,2,3-triazole-4-yl]-1,2,4-oxadiazole-3-yl}-3-methylphenyl)propanoic acid] | 709
21 | O=C1Cc2cc(-c3noc(-c4nnn(-c5ccccc5F)c4-c4ccncc4)n3)ccc2N1 [Example 106, 5-{5-[1-(2-fluorophenyl)-5-pyridin-4-yl-1H-1,2,3-triazol-4-yl]-1,2,4-oxadiazol-3-yl}-1,3-dihydro-2H-indol-2-one] | 18
22 | Fc1ccccc1-n1nnc(-c2nc(-c3ccncc3)no2)c1C1CCCO1 (stereo not drawn) [Example 56, 4-{5-[1-(2-fluorophenyl)-5-(tetrahydrofuran-2-yl)-1H-1,2,3-triazol-4-yl]-1,2,4-oxadiazol-3-yl}pyridine] | 1850
23 | Fc1ccc(F)c(-c2noc(-c3nnn(-c4ccccc4F)c3CNCC3CC3)n2)c1 [Example 112, 1-cyclopropyl-N-{[4-[3-(2,5-difluorophenyl)-1,2,4-oxadiazol-5-yl]-1-(2-fluorophenyl)-1H-1,2,3-triazol-5-yl]methyl}methanamine] | 806
24 | OCC1CCCN(Cc2ccc(-c3noc(-c4nnn(-c5ccccc5F)c4-c4ccncc4)n3)cc2)C1 (stereo not drawn) [Example 140, [1-(4-{5-[1-(2-fluorophenyl)-5-pyridin-4-yl-1H-1,2,3-triazol-4-yl]-1,2,4-oxadiazol-3-yl}benzyl)piperidin-3-yl]methanol] | 530
25 | OCCNCc1cccc(-c2noc(-c3nnn(-c4ccccc4F)c3-c3ccncc3)n2)c1 [Example 132, 2-[(3-{5-[1(2-fluorophenyl)-5-pyridin-4-yl-1H-1,2,3-triazol-4-yl]-1,2,4-oxadiazol-3-yl}benzyl)amino]ethanol formate] | 383
26 | CNCc1cccc(-c2noc(-c3nnn(-c4ccccc4F)c3-c3ccncc3)n2)c1 [Example 133, 1-(3-{5-[1-(2-fluorophenyl)-5-pyridin-4-yl-1H-1,2,3-triazol-4-yl]-1,2,4-oxadiazol-3-yl}phenyl)-N-methylmethanamine formate] | 646
27 | Fc1ccccc1-n1nnc(-c2nc(-c3ccncc3)no2)c1C1CCCC1 [Example 72, 4-{5-[5-cyclopentyl-1-(2-fluorophenyl)-1H-1,2,3-triazol-4-yl]-1,2,4-oxadiazol-3-yl}pyridine] | 980
28 | OCCc1ccc(-c2noc(-c3nnn(-c4ccccc4F)c3-c3ccncc3)n2)cc1 [Example 150, 2-(4-{5-[1(2-fluorophenyl)-5-pyridin-4-yl-1H-1,2,3-triazol-4-yl]-1,2,4-oxadiazol-3-yl}phenyl)ethanol] | 43
29 | COCc1c(-c2nc(-c3ccccc3OC)no2)nnn1-c1ccccc1F [Example 50, 5-[1-(2-fluorophenyl)-5-(methoxymethyl)-1H-1,2,3-triazol-4-yl]-3-(2-methoxyphenyl)-1,2,4-oxadiazole] | 443
30 | Fc1ccccc1-n1nnc(-c2nc(-c3c(F)cccc3F)no2)c1-c1ccncc1 [Example 99, 4-[4-[3-(2,6-difluorophenyl)-1,2,4-oxadiazol-5-yl]-1-(2-fluorophenyl)-1H-1,2,3-triazol-5-yl]pyridine] | 106
